# Data from patent publication US6737383B1, “Herbicidal oxadiazolidines” (priority 1999, dated 2004).
# Tests used:
# surinam grass = experiment: Test B pre/postemergence surinam grass; assay type: in vivo, Brachiaria decumbens
# Procedure, shortened: (§1)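 Herbicidal effect was estimated by eye on a ten-point control scale after plants spent twelve to sixteen days in a greenhouse following soil or foliar treatment. Foliar sprays targeted plants at one to four leaves; all doses were formulated in a non-phytotoxic solvent with surfactant.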
# cocklebur = experiment: Test B pre/postemergence cocklebur; assay type: in vivo, Xanthium strumarium
# Procedure, shortened: as §1
# corn = experiment: Test B pre/postemergence corn; assay type: in vivo, Zea mays
# Procedure, shortened: as §1
# crabgrass = experiment: Test B pre/postemergence crabgrass; assay type: in vivo, Digitaria sanguinalis
# Procedure, shortened: as §1
# giant foxtail = experiment: Test B pre/postemergence giant foxtail; assay type: in vivo, Setaria faberii
# Procedure, shortened: as §1
# morningglory = experiment: Test B pre/postemergence morningglory; assay type: in vivo, Ipomoea hederacea
# Procedure, shortened: as §1
# pigweed = experiment: Test B pre/postemergence pigweed; assay type: in vivo, Amaranthus retroflexus
# Procedure, shortened: as §1
# rape = experiment: Test B pre/postemergence rape; assay type: in vivo, Brassica napus
# Procedure, shortened: as §1
# sugar beet = experiment: Test B pre/postemergence sugar beet; assay type: in vivo, Beta vulgaris
# Procedure, shortened: as §1
# wheat = experiment: Test B pre/postemergence wheat; assay type: in vivo, Triticum aestivum
# Procedure, shortened: as §1
# wild oat = experiment: Test B pre/postemergence wild oat; assay type: in vivo, Avena fatua
# Procedure, shortened: as §1
# purple nutsedge = experiment: Test B pre/postemergence purple nutsedge; assay type: in vivo, Cyperus rotundus
# Procedure, shortened: as §1
# rice = experiment: Test B flood test rice; assay type: in vivo, Oryza sativa
# Procedure, shortened: (§2)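 Read-out is a visual response score from 0 (no effect) to 10 (complete control), assigned by comparison with untreated controls. Treatment was applied at the 2-leaf stage, and plants stayed in the greenhouse for twelve to sixteen days before scoring.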
# smallflower flatsedge = experiment: Test B flood test smallflower flatsedge; assay type: in vivo, Cyperus difformis
# Procedure, shortened: as §2
# duck salad = experiment: Test B flood test duck salad; assay type: in vivo, Heteranthera limosa
# Procedure, shortened: as §2
# bamyardgrass = experiment: Test B flood test barnyardgrass; assay type: in vivo, Echinochloa crus-galli
# Procedure, shortened: as §2
# [1] = Postemergence, Rate 62 g/ha, scale of 0 to 10, 0 is no effect, 10 is complete control
# [2] = Postemergence, Rate 125 g/ha, scale 0 to 10, 0 is no effect, 10 is complete control
# [3] = Postemergence, Rate 500 g/ha, scale of 0 to 10 where 0 is no effect and 10 is complete control
# [4] = Preemergence, Rate 62 g/ha, scale 0 to 10 (0 no effect, 10 complete control)
# [5] = Preemergence, Rate 125 g/ha, scale 0 to 10, 0 is no effect, 10 is complete control
# [6] = Preemergence, Rate 500 g/ha, scale of 0 to 10 where 0 is no effect and 10 is complete control
# [7] = Rate 250 g/ha, Postemergence, scale of 0 to 10 where 0 is no effect and 10 is complete control
# [8] = Rate 62 g/ha, flood test species, Pre-emergence, visual evaluation after twelve to sixteen days
# [9] = Rate 125 g/ha, under heading Pre-emergence, flood test species, visual evaluation after twelve to sixteen days
# [10] = Rate 250 g/ha, Pre-emergence (flood test species), scale 0 to 10, 0 is no effect, 10 is complete control
# [11] = Rate 500 g/ha, Pre-emergence section of Table B, 0 to 10 scale (0 no effect, 10 complete control)
smiles,measurement,setting,value
CC(C)N(C(=O)n1oc(=O)n(CCC2OCCO2)c1=O)c1ccccc1 [Compound 560],B. signalgrass plant response rating,surinam grass; [1],0
same,B. signalgrass plant response rating,surinam grass; [2],3
same,"Plant response rating, B. signalgrass",surinam grass; [3],7
same,B. signalgrass plant response rating,surinam grass; [4],4
same,B. signalgrass plant response rating,surinam grass; [5],7
same,"B. signalgrass plant response rating (0 to 10 scale, 0 is no effect, 10 is complete control)","surinam grass; Preemergence, Rate 250 g/ha",7
same,B. signalgrass plant response rating,surinam grass; [6],9
same,"Plant response rating, B. signalgrass",surinam grass; [7],6
same,Cocklebur plant response rating,cocklebur; [1],0
same,Cocklebur plant response rating,cocklebur; [2],0
same,"Plant response rating, Cocklebur",cocklebur; [3],0
same,Cocklebur plant response rating,cocklebur; [4],0
same,Cocklebur plant response rating,cocklebur; [5],0
same,Cocklebur plant response rating (0 to 10 scale),"cocklebur; Preemergence, Rate 250 g/ha",0
same,Cocklebur plant response rating,cocklebur; [6],0
same,"Plant response rating, Cocklebur",cocklebur; [7],0
same,Corn plant response rating,corn; [1],0
same,Corn plant response rating,corn; [2],0
same,"Plant response rating, Corn",corn; [3],4
same,Corn plant response rating,corn; [4],0
same,Corn plant response rating,corn; [5],0
same,Corn plant response rating (0 to 10 scale),"corn; Preemergence, Rate 250 g/ha",5
same,Corn plant response rating,corn; [6],5
same,"Plant response rating, Corn",corn; [7],2
same,Crabgrass plant response rating,crabgrass; [1],0
same,Crabgrass plant response rating,crabgrass; [2],4
same,"Plant response rating, Crabgrass",crabgrass; [3],8
same,Crabgrass plant response rating,crabgrass; [4],9
same,Crabgrass plant response rating,crabgrass; [5],9
same,Crabgrass plant response rating (0 to 10 scale),"crabgrass; Preemergence, Rate 250 g/ha",9
same,Crabgrass plant response rating,crabgrass; [6],10
same,"Plant response rating, Crabgrass",crabgrass; [7],3
same,Giant foxtail plant response rating,giant foxtail; [1],2
same,Giant foxtail plant response rating,giant foxtail; [2],7
same,"Plant response rating, Giant foxtail",giant foxtail; [3],8
same,Giant foxtail plant response rating,giant foxtail; [4],10
same,Giant foxtail plant response rating,giant foxtail; [5],10
same,Giant foxtail plant response rating (0 to 10 scale),"giant foxtail; Preemergence, Rate 250 g/ha",10
same,Giant foxtail plant response rating,giant foxtail; [6],10
same,"Plant response rating, Giant foxtail",giant foxtail; [7],7
same,Morningglory plant response rating,morningglory; [1],4
same,Morningglory plant response rating,morningglory; [2],7
same,"Plant response rating, Morningglory",morningglory; [3],10
same,Morningglory plant response rating,morningglory; [4],0
same,Morningglory plant response rating,morningglory; [5],0
same,Morningglory plant response rating (0 to 10 scale),"morningglory; Preemergence, Rate 250 g/ha",3
same,Morningglory plant response rating,morningglory; [6],3
same,"Plant response rating, Morningglory",morningglory; [7],9
same,Redroot pigweed plant response rating,pigweed; [1],2
same,"Plant response rating, Redroot pigweed",pigweed; [3],9
same,Redroot pigweed plant response rating,pigweed; [4],3
same,Redroot pigweed plant response rating,pigweed; [5],8
same,Redroot pigweed plant response rating (0 to 10 scale),"pigweed; Preemergence, Rate 250 g/ha",9
same,Redroot pigweed plant response rating,pigweed; [6],9
same,"Plant response rating, Redroot pigweed",pigweed; [7],8
same,Rape plant response rating,rape; [1],0
same,"Plant response rating, Rape",rape; [3],7
same,Rape plant response rating,rape; [4],0
same,Rape plant response rating,rape; [5],3
same,Rape plant response rating (0 to 10 scale),"rape; Preemergence, Rate 250 g/ha",7
same,Rape plant response rating,rape; [6],8
same,"Plant response rating, Rape",rape; [7],4
same,Sugarbeets plant response rating,sugar beet; [1],0
same,"Plant response rating, Sugarbeets",sugar beet; [3],6
same,Sugarbeets plant response rating,sugar beet; [4],0
same,Sugarbeets plant response rating,sugar beet; [5],0
same,Sugarbeets plant response rating (0 to 10 scale),"sugar beet; Preemergence, Rate 250 g/ha",3
same,Sugarbeets plant response rating,sugar beet; [6],7
same,"Plant response rating, Sugarbeets",sugar beet; [7],0
same,Wheat plant response rating,wheat; [1],0
same,"Plant response rating, Wheat",wheat; [3],6
same,Wheat plant response rating,wheat; [4],3
same,Wheat plant response rating,wheat; [5],5
same,Wheat plant response rating (0 to 10 scale),"wheat; Preemergence, Rate 250 g/ha",6
same,Wheat plant response rating,wheat; [6],8
same,"Plant response rating, Wheat",wheat; [7],3
same,Wild oats plant response rating,wild oat; [1],0
same,"Plant response rating, Wild oats",wild oat; [3],2
same,Wild oats plant response rating,wild oat; [4],0
same,Wild oats plant response rating,wild oat; [5],0
same,Wild oats plant response rating (0 to 10 scale),"wild oat; Preemergence, Rate 250 g/ha",5
same,Wild oats plant response rating,wild oat; [6],7
same,"Plant response rating, Wild oats",wild oat; [7],2
same,Nutsedge plant response rating,purple nutsedge; [1],3
same,Nutsedge plant response rating,purple nutsedge; [2],3
same,"Plant response rating, Nutsedge",purple nutsedge; [3],5
same,Nutsedge plant response rating,purple nutsedge; [4],0
same,Nutsedge plant response rating,purple nutsedge; [5],3
same,Nutsedge plant response rating (0 to 10 scale),"purple nutsedge; Preemergence, Rate 250 g/ha",7
same,Nutsedge plant response rating,purple nutsedge; [6],10
same,"Plant response rating, Nutsedge",purple nutsedge; [7],3
same,"Plant response rating, Rice (0 to 10 scale, 0 is no effect, 10 is complete control)",rice; [8],0
same,"Rice plant response rating (0 to 10 scale, 0 is no effect, 10 is complete control)",rice; [9],0
same,Rice plant response rating,rice; [10],0
same,Rice plant response rating,rice; [11],0
same,"Plant response rating, S. Flatsedge (0 to 10 scale, 0 is no effect, 10 is complete control)",smallflower flatsedge; [8],0
same,"S. Flatsedge plant response rating (0 to 10 scale, 0 is no effect, 10 is complete control)",smallflower flatsedge; [9],0
same,S. Flatsedge plant response rating,smallflower flatsedge; [10],0
same,S. Flatsedge plant response rating,smallflower flatsedge; [11],0
same,"Plant response rating, Ducksalad (0 to 10 scale, 0 is no effect, 10 is complete control)",duck salad; [8],0
same,"Ducksalad plant response rating (0 to 10 scale, 0 is no effect, 10 is complete control)",duck salad; [9],0
same,Ducksalad plant response rating,duck salad; [10],0
same,Ducksalad plant response rating,duck salad; [11],0
same,"Plant response rating, Barnyardgrass (0 to 10 scale, 0 is no effect, 10 is complete control)",bamyardgrass; [8],0
same,"Barnyardgrass plant response rating (0 to 10 scale, 0 is no effect, 10 is complete control)",bamyardgrass; [9],0
same,Barnyardgrass plant response rating,bamyardgrass; [10],0
same,Barnyardgrass plant response rating,bamyardgrass; [11],0
